PubChem BioAssay (NCI)
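Cells were grown in 96-well plates and exposed to each compound for 48 hours at five concentrations; endpoints were interpolated linearly between bracketing concentrations, or set to the highest concentration if not reached. Abbreviation: GI50, concentration required for 50% inhibition of growth. TGI denotes the concentration required for complete inhibition of growth.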

Key:
Assay in all cases: DTP human tumour cell line panel, 48 h
[1] = tested on: 786-0 renal
[2] = tested on: A549 NSCLC
[3] = tested on: ACHN renal
[4] = tested on: BT-549 breast
[5] = tested on: CAKI-1 renal
[6] = tested on: CCRF-CEM leukemia
[7] = tested on: COLO 205 colon
[8] = tested on: DU-145 prostate
[9] = tested on: EKVX NSCLC
[10] = tested on: HCC-2998 colon
[11] = tested on: HCT-116 colon
[12] = tested on: HCT-15 colon
[13] = tested on: HL-60(TB) leukemia
[14] = tested on: HOP-62 NSCLC
[15] = tested on: HOP-92 NSCLC
[16] = tested on: HS 578T breast
[17] = tested on: HT29 colon
[18] = tested on: IGROV1 ovarian
[19] = tested on: K-562 leukemia
[20] = tested on: KM12 colon
[21] = tested on: LOX IMVI melanoma
[22] = tested on: M14 melanoma
[23] = tested on: MALME-3M melanoma
[24] = tested on: MCF7 breast
[25] = tested on: MDA-MB-231 breast
[26] = tested on: MDA-MB-435
[27] = tested on: MOLT-4 leukemia
[28] = tested on: NCI-H226 lung
[29] = tested on: NCI-H23 lung
[30] = tested on: NCI-H460 lung
[31] = tested on: NCI-H522 lung
[32] = tested on: NCI/ADR-RES ovarian
[33] = tested on: OVCAR-3 ovarian
[34] = tested on: OVCAR-4 ovarian
[35] = tested on: OVCAR-5 ovarian
[36] = tested on: OVCAR-8 ovarian
[37] = tested on: PC-3 prostate
[38] = tested on: RPMI-8226 leukemia
[39] = tested on: SF-268 CNS
[40] = tested on: SF-295 CNS
[41] = tested on: SF-539 CNS
[42] = tested on: SK-MEL-2 melanoma
[43] = tested on: SK-MEL-28 melanoma
[44] = tested on: SK-MEL-5 melanoma
[45] = tested on: SK-OV-3 ovarian
[46] = tested on: SN12C renal
[47] = tested on: SNB-19 CNS
[48] = tested on: SR leukemia
[49] = tested on: SW-620 colon
[50] = tested on: T-47D breast
[51] = tested on: U251 CNS
[52] = tested on: UACC-62 melanoma
[53] = tested on: UO-31 renal

CS(=O)(=O)Nc1cc(-c2ccc3ncnc(Nc4cccc(Cl)c4)c3c2)cnc1Cl
GI50 [1]: 457 nM
TGI [1]: 7.01 µM
GI50 [2]: 1110 nM
TGI [2]: 4.17 µM
GI50 [3]: 474 nM
TGI [3]: 46.6 µM
GI50 [4]: 272 nM
TGI [4]: 3.28 µM
GI50 [5]: 299 nM
TGI [5]: 7.71 µM
GI50 [6]: 463 nM
TGI [6]: 20.7 µM
GI50 [7]: 371 nM
TGI [7]: 1800 nM
GI50 [8]: 455 nM
TGI [8]: 10.3 µM
GI50 [9]: 416 nM
TGI [9]: 3.59 µM
GI50 [10]: 246 nM
TGI [10]: 1790 nM
GI50 [11]: 664 nM
TGI [11]: 5.87 µM
GI50 [12]: 296 nM
TGI [12]: 2720 nM
GI50 [13]: 174 nM
TGI [13]: 17.7 µM
GI50 [14]: 220 nM
TGI [14]: 5.29 µM
GI50 [15]: 122 nM
TGI [15]: 960 nM
GI50 [16]: 88 nM
TGI [16]: 782 nM
GI50 [17]: 319 nM
TGI [17]: 5.84 µM
GI50 [18]: 78.4 nM
TGI [18]: 476 nM
GI50 [19]: 1360 nM
TGI [19]: 59.8 µM
GI50 [20]: 1030 nM
TGI [20]: 5.11 µM
GI50 [21]: 330 nM
TGI [21]: 2190 nM
GI50 [22]: 542 nM
TGI [22]: 10.6 µM
GI50 [23]: 98.5 nM
TGI [23]: 820 nM
GI50 [24]: 215 nM
TGI [24]: 13.6 µM
GI50 [25]: 1050 nM
TGI [25]: 5.56 µM
GI50 [26]: 418 nM
TGI [26]: 2670 nM
GI50 [27]: 235 nM
TGI [27]: 1170 nM
GI50 [28]: 1100 nM
TGI [28]: 7.62 µM
GI50 [29]: 328 nM
TGI [29]: 10.6 µM
GI50 [30]: 642 nM
TGI [30]: 11.1 µM
GI50 [31]: 391 nM
TGI [31]: 6.86 µM
GI50 [32]: 1190 nM
TGI [32]: 12 µM
GI50 [33]: 343 nM
TGI [33]: 2280 nM
GI50 [34]: 828 nM
TGI [34]: 9.22 µM
GI50 [35]: 223 nM
TGI [35]: 13.5 µM
GI50 [36]: 1240 nM
TGI [36]: 30.3 µM
GI50 [37]: 288 nM
TGI [37]: 11.5 µM
GI50 [38]: 378 nM
TGI [38]: 2360 nM
GI50 [39]: 337 nM
TGI [39]: 4.71 µM
GI50 [40]: 335 nM
TGI [40]: 2200 nM
GI50 [41]: 439 nM
TGI [41]: 3.73 µM
GI50 [42]: 345 nM
TGI [42]: 2050 nM
GI50 [43]: 300 nM
TGI [43]: 4.75 µM
GI50 [44]: 350 nM
TGI [44]: 1470 nM
GI50 [45]: 262 nM
TGI [45]: 1580 nM
GI50 [46]: 447 nM
TGI [46]: 51.2 µM
GI50 [47]: 717 nM
TGI [47]: 5.05 µM
GI50 [48]: 371 nM
TGI [48]: 4.95 µM
GI50 [49]: 480 nM
TGI [49]: 4.87 µM
GI50 [50]: 23.7 nM
TGI [50]: 635 nM
GI50 [51]: 503 nM
TGI [51]: 2680 nM
GI50 [52]: 202 nM
TGI [52]: 1260 nM
GI50 [53]: 105 nM
TGI [53]: 1860 nM
